Reference: ChEMBL document CHEMBL5214991, “Discovery of 4-methyl-3-(pyridin-2-ylamino)benzamide derivatives as C-Abl inhibitors with potential neuroprotective effect” (Bioorg Med Chem, 2022)
Active and inactive are the calls of the source. The rule behind the calls is not given here.

What was measured:
[1] = MRT (0 to t) in male Sprague-Dawley rat at 20 mg/kg, po measured by LC-MS/MS analysis; format: ADME, organism-based; settings: in vivo
[2] = AUC (0 to infinity) in male Sprague-Dawley rat at 20 mg/kg, po measured by LC-MS/MS analysis; format: ADME, organism-based; design: time infinity, dose 20 mg/kg, route po; settings: in vivo
[3] = AUC (0 to t) in male Sprague-Dawley rat at 20 mg/kg, po measured by LC-MS/MS analysis; format: ADME, organism-based; design: dose 20 mg/kg, route po; settings: in vivo
[4] = Oral bioavailability in male Sprague-Dawley rat at 20 mg/kg measured by LC-MS/MS analysis; format: ADME, organism-based; settings: in vivo
[5] = Cytotoxicity against human L02 cells incubated for 48 hrs and measured by MTT assay; format: toxicity, cell-based
[6] = MRT (0 to infinity) in male Sprague-Dawley rat at 20 mg/kg, po measured by LC-MS/MS analysis; format: ADME, organism-based; settings: in vivo
[7] = Cytotoxicity against rat H9c2 cells incubated for 48 hrs and measured by MTT assay; format: toxicity, cell-based
[8] = Cytotoxicity against human SH-SY5Y cells incubated for 48 hrs and measured by MTT assay; format: toxicity, cell-based
[9] = Cmax in male Sprague-Dawley rat at 20 mg/kg, po measured by LC-MS/MS analysis; format: ADME, organism-based; design: dose 20 mg/kg, route po; settings: in vivo
[10] = AUC (0 to infinity) in male Sprague-Dawley rat at 5 mg/kg, iv measured by LC-MS/MS analysis; format: ADME, organism-based; design: time infinity, dose 5 mg/kg, route iv; settings: in vivo
[11] = Tmax in male Sprague-Dawley rat at 20 mg/kg, po measured by LC-MS/MS analysis; format: ADME, organism-based; settings: in vivo
SH-SY5Y [12] = assay: Neuroprotective activity against MPP+-induced cell death in human SH-SY5Y cells assessed as reduction in apoptosis at 1.25 to 5 uM measured after 48 hrs by propidium iodide staining method; format: functional, cell-based; settings: dose 1.25-5 µM
[13] = Volume of distribution at steady state in male Sprague-Dawley rat at 5 mg/kg, iv measured by LC-MS/MS analysis; format: ADME, organism-based; settings: in vivo, read-out: Vdss
[14] = MRT (0 to t) in male Sprague-Dawley rat at 5 mg/kg, iv measured by LC-MS/MS analysis; format: ADME, organism-based; settings: in vivo
[15] = Half-life in male Sprague-Dawley rat at 20 mg/kg, po measured by LC-MS/MS analysis; format: ADME, organism-based; settings: in vivo
[16] = Ratio of drug concentration in brain to plasma in male Sprague-Dawley rat at […], iv measured by LC-MS/MS analysis; format: ADME, organism-based; settings: dose 5 mg/kg, read-out: BPR
[17] = Half-life in male Sprague-Dawley rat at 5 mg/kg, iv measured by LC-MS/MS analysis; format: ADME, organism-based; settings: in vivo
[18] = Cytotoxicity against HEK293 cells incubated for 48 hrs and measured by MTT assay; format: toxicity, cell-based; settings: human
SH-SY5Y [19] = assay: Neuroprotective activity against MPP+-induced cell death in human SH-SY5Y cells assessed as increase in cell viability at 0.08 to 20 uM measured after 48 hrs by propidium iodide staining method; format: functional, cell-based; settings: dose 0.08-20 µM
[20] = Clearance in male Sprague-Dawley rat at 5 mg/kg, iv measured by LC-MS/MS analysis; format: ADME, organism-based; settings: in vivo
[21] = MRT (0 to infinity) in male Sprague-Dawley rat at 5 mg/kg, iv measured by LC-MS/MS analysis; format: ADME, organism-based; settings: in vivo
[22] = AUC (0 to t) in male Sprague-Dawley rat at 5 mg/kg, iv measured by LC-MS/MS analysis; format: ADME, organism-based; design: dose 5 mg/kg, route iv; settings: in vivo

Row | Structure (SMILES) | bioavailability [4] [%] | IC50 at 48 h [5] [µM] | IC50 at 48 h [7] [µM] | IC50 at 48 h [8] [µM] | IC50 at 48 h [18] [µM] | Activity (SH-SY5Y [19]) | also measured
1 | Cc1ccc(C(=O)Nc2cc(-c3cnn(C)c3)cc(C(F)(F)F)c2)cc1Nc1cc(-c2cccnc2)ccn1 | 47.6 | > 80 | > 80 | > 80 | > 80 | Active | MRT last [1]: 5.9 h; AUC(0-inf) [2]: 9900 ng·h/mL; AUC(0-t) [3]: 9890 ng·h/mL; MRT inf [6]: 5.93 h; Cmax [9]: 1380 ng/mL; AUC(0-inf) [10]: 5200 ng·h/mL; Tmax [11]: 2.33 h; Activity (SH-SY5Y [12]): Active; Vd [13]: 5.36 L/kg; MRT last [14]: 5.29 h; half-life [15]: 3.54 h; Kp [16]: 4; half-life [17]: 3.62 h; clearance [20]: 17.7 mL/min/kg; MRT inf [21]: 5.29 h; AUC(0-t) [22]: 5120 ng·h/mL
2 | Cc1ccc(C(=O)Nc2ccc(CN3CCN(C)CC3)c(C(F)(F)F)c2)cc1Nc1cc(-c2cccnc2)ccn1 |  | 37.4 | 9.12 | 19 | 14 | Active | 
3 | Cc1ccc(C(=O)Nc2ccc(CN3CCN(C)CC3)c(C(F)(F)F)c2)cc1Nc1cc(-c2cncnc2)ccn1 |  | 30.1 | 16.7 | 12 | 17.1 | Active | 
4 | Cc1cn(-c2cc(NC(=O)c3ccc(C)c(Nc4nccc(-c5cccnc5)n4)c3)cc(C(F)(F)F)c2)cn1 [NILOTINIB] | 27.1 | 40.4 | 21.3 | 38.5 | 8.4 | Active | 
5 | Cc1cn(-c2cc(NC(=O)c3ccc(C)c(Nc4cc(-c5cccnc5)ccn4)c3)cc(C(F)(F)F)c2)cn1 |  | > 80 | > 80 | > 80 | > 80 | Active | 
6 | Cc1ccc(C(=O)Nc2cc(-c3cnn(C)c3)cc(C(F)(F)F)c2)cc1Nc1cc(-c2cncnc2)ccn1 |  | > 80 | > 80 | > 80 | > 80 | Active | 
